Laboratory results reported in patent publication US8609610B2, “Inhibitors of the trypsin-like site of the proteasome and methods of use thereof” (Trustees of Dartmouth College, priority 2011, dated 2013).
“Also recorded” adds a separate entry of the source. Where a name gives a salt, the structure may show the parent alone.

Key:
Cathepsin B, H, L, S = experiment: Cathepsin activity with pan-cathepsin substrate Z-FR-amc; format: cell-based; conditions: NCI-H929 cells, 6 hour treatment
Description: Cathepsin B, H, L, S activity was measured with pan-cathepsin substrate Z-FR-amc (Kirschke & Wiederanders (1994) Methods Enzymol. 244:500-11) in extracts of cytosol-less cells at pH 6.0 (Screen, et al. (2010) supra). Cathepsin D activity was measured in cytosol-less extracts using SENSOLYTE 520 Cathepsin D Fluorometric Assay Kit (AnaSpec). Combined cathepsin D and E activity was measured using the same kit, in which cathepsin D substrate provided with the kit was replaced with 7-Methoxycoumarin-[…](Dnp)-X′-NH2 (SEQ ID NO:10; where “X′” stand for D-Arg) internally quenched fluorogenic substrate of cathepsin D and E. In this case, pH 3.0 assay buffer used for cell extraction. All activity observed using both procedures was inhibited by more than 98% by specific inhibitor of aspartic proteases pepstatin A.

[1] = tested on: trypsin-like sites (β2) of proteasome in MM cells; experiment: PROTEASOMEGLO assay of proteasome inhibition in MM cells; format: cell-based
Description: (§1) Proteasome inhibition in MM cells was measured with luminogenic substrates using PROTEASOMEGLO assay (Promega). […] An aliquot of culture was pelleted and medium was removed and replaced with PBS. The resulting cell suspension was mixed with luminogenic substrates in the manufacturer-provided lysis/assay buffer. After 3 minutes mixing on an orbital shaker, the plate was incubated in the dark for additional 17 minutes, followed by the measurements of the luminescence, performed in triplicate for each substrate/data point. Data were analyzed as for purified proteasomes. […] Cells (1×10^6 per well of a 6-well plate) were incubated with the inhibitors for 4 hours at 37° C. and this was followed by a 2 hour incubation with 5 μM BODIPY-TMR-epoxomicin. Subsequently, the medium was removed and the cells were washed with PBS and harvested. […] The supernatant was collected and the protein concentration was determined by the Bradford assay, and used to normalize gel loading. The samples were analysed by SDS-PAGE and fluorescent densitometry as described for competition experiment in cell lysates. IC50 values were calculated from three independent experiments using […] PRISM software.

[2] = target: T1, trypsin-like site of 26S proteasomes (Oryctolagus cuniculus, UniProt G1SWK8); experiment: Inhibition of purified 26S proteasomes, substrate Ac-RLR-amc; format: biochemical, rabbit; conditions: for IC50: purified 26S proteasomes, >>30 no inhibition at 30 μM, >30 inhibition between 10 and 50% at 30 μM, read-out: IC50 for sites in 26S proteasomes: Tr-L
T1 construct: IC50 for sites in 26S proteasomes: Tr-L; other: purified 26S proteasomes; other: 26S proteasomes from rabbit muscles
T1 sequence (G1SWK8 1-271): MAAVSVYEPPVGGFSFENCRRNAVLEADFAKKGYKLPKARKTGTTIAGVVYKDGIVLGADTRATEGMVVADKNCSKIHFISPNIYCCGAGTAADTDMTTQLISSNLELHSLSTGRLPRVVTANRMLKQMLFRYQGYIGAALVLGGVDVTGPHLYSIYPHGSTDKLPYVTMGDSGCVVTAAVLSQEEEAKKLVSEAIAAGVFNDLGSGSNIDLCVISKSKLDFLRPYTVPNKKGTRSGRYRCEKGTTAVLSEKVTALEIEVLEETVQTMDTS

[3] = target: T2, chymotrypsin-like site of 26S proteasomes (Oryctolagus cuniculus, UniProt G1T4Q9); experiment: Inhibition of purified 26S proteasomes, substrate Suc-LLVY-amc; format: biochemical, rabbit; conditions: >>30 no inhibition at 30 μM, >30 inhibition between 10 and 50% at 30 μM, read-out: IC50 for sites in 26S proteasomes: Chym-L
T2 sequence (G1T4Q9 1-263): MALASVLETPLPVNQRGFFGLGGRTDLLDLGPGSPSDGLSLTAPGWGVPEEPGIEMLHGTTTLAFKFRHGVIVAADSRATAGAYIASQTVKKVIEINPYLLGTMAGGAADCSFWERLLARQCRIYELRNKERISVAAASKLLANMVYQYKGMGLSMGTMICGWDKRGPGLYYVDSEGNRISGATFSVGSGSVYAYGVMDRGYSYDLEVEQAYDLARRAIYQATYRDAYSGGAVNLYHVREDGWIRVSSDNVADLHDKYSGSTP
Description: (§2) 26S proteasomes were purified from rabbit muscle using known methods (Screen, et al. (2010) supra). […] NOVEX Bis-Tris gels (12%, Invitrogen) with MOPS running buffer were used for electrophoretic separation of catalytic subunits modified by active-site probes. Inhibition of active sites inside cells was assayed using luminescent PROTEASOMEGLO assay (Promega; Moravec, et al. (2009) Anal. Biochem. 387:294-302) according to known methods (Britton, et al. (2009) supra).

[4] = target: caspase-like site of 26S proteasomes (Oryctolagus cuniculus, UniProt A0A5F9DQW2); experiment: Inhibition of purified 26S proteasomes, substrate Ac-nLPnLD-amc; format: biochemical, rabbit; conditions: >>30 no inhibition at 30 μM, >30 inhibition between 10 and 50% at 30 μM, read-out: IC50 for sites in 26S proteasomes: Casp-L
caspase-like site of 26S proteasomes, sequence (A0A5F9DQW2 1-212): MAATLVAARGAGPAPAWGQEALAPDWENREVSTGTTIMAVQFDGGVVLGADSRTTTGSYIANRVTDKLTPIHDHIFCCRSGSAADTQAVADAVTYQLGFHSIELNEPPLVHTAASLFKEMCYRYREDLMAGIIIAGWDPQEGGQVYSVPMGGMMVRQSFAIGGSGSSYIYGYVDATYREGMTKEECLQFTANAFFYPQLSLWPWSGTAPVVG
Description: as §2

[5] = tested on: trypsin-like site of 26S proteasomes; experiment: Inhibition of purified 26S proteasomes, substrate Ac-RLR-amc; format: biochemical, rabbit; conditions: rabbit 26S proteasomes
β5 proteasome subunit = target: T3, β5 proteasome subunit (Homo sapiens, UniProt P20618+P28074); experiment: Competition assay in HEK-293T cell lysate with MV151; format: biochemical; conditions: HEK293 extracts
T3 construct: Whole cell lysates of HEK-293T or EL-4 cells were made by sonication; endogenous in cells; host or cells: HEK-293T
Description: Whole cell lysates of HEK-293T or EL-4 cells were made by sonication in 3 volumes of lysis buffer containing 50 mM Tris pH 7.5, 1 mM DTT, 5 mM MgCl2, 250 mM sucrose, 2 mM ATP, 0.025% digitonin. Protein concentration was determined by the Bradford assay. Cell lysates (13.5 μg total protein for HEK lysates and 9 μg total protein for EL-4 lysates) were exposed to the inhibitors for 1 hour at 37° C. prior to incubation with MV151 (0.5 μM) or BODIPY-TMR-epoxomicin (0.5 μM) for an additional 1 hour at 37° C. Reaction mixtures were boiled with Laemmli's buffer containing (3-mercaptoethanol for 5 minutes before being resolved by 12.5% SDS-PAGE. In-gel detection of residual proteasome activity was performed in the wet gel slabs directly on the TYPHOON Variable Mode Imager (Amersham Biosciences) using the Cy3/Tamra settings (λex 532 nm, λem 560 nm) to detect MV151, BODIPY-TMR-epoxomicin and Cy2/Fam settings (λex 488 nm, λem 520 nm) to detect compounds 39 and 59.
The inhibition potential of the inhibitors for each of the catalytically active subunits was assessed in competition assays employing extracts of human embryonic kidney cells (HEK-293T) and mouse lymphoma cells (EL-4) in combination with the fluorescent broad spectrum proteasome probe MV151 (Verdoes, et al. (2006) Chem. Biol. 13:1217-1226). Competitive inhibition of a proteasome active site is reflected by the disappearance of the corresponding band on a gel.

[6] = target: T4, trypsin-like sites (β2) of proteasome in MM cells (Homo sapiens, UniProt Q99436); experiment: PROTEASOMEGLO assay of proteasome inhibition in MM cells; format: cell-based; conditions: NCI-H929 cells treated overnight
T4 construct: endogenous in cells; host or cells: NCI-H929, RPMI-8226 and other MM cell lines
T4 sequence (Q99436 44-277): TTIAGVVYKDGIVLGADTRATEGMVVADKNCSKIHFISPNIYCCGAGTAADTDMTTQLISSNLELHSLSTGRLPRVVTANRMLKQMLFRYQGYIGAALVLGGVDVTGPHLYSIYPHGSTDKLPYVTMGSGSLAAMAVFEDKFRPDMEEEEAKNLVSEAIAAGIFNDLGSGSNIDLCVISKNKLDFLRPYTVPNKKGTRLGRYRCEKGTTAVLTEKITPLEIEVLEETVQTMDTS
Description: as §1

β2 and β2i sites = experiment: MV-151 label-competition in extracts of RPMI-8226 MM cells; format: biochemical; conditions: extracts of RPMI-8226 cells, MV-151 probe
Text: Multiple myeloma cells express constitutive proteasomes and immunoproteasomes, and substrates used for the measurement of activity were cleaved by both. To determine whether there were any differences in inhibition of constitutive proteasomes or immunoproteasomes by NC-002, NC-012, and NC-022, the fluorescent activity-based probe MV-151 (Verdoes, et al. (2006) Chem. Biol. 13:1217-1226) was used in a label-competition experiment. Extracts of RPMI-8226 MM cells (which express more immunoproteasomes than NCI-H929 cells) were treated first with the NC inhibitors and then with the MV-151 probe. This was followed by fractionation on SDS-PAGE to separate proteasome subunits and imaging to reveal those subunits labeled by the probe (i.e., unmodified by the inhibitors).

SMILES	inhibition of cathepsins (Z-FR-amc) (Cathepsin B, H, L, S)	IC50 [2] [µM]	IC50 [3] [µM]	IC50 [4] [µM]	IC50 (Chym-L)/IC50 (Tr-L) [5]	inhibition of chymotrypsin-like sites in extracts versus purified proteasomes (β5 proteasome subunit)	also measured
CC(C)C[C@H](NC(=O)[C@H](Cc1ccncc1)NC(=O)[C@H](Cc1ccccc1)N=[N+]=[N-])C(=O)N[C@H](/C=C/S(C)(=O)=O)Cc1ccc(CN)cc1 [Compound 50, N3-Phe-Ala (4-pyridine)-Leu-Phe (4-CH2NH2-TFA)-VS]	partly reduced cathepsin activity	–	–	–	–	–	–
CC(C)C[C@H](NC(=O)[C@H](Cc1ccc(N)cc1)NC(=O)[C@H](Cc1ccccc1)N=[N+]=[N-])C(=O)N[C@H](/C=C/S(C)(=O)=O)Cc1ccc(CN)cc1 [Compound 51, N3-Phe-Phe (4-NH2. TFA)-Leu-Phe (4-CH2NH2.TFA)-VS]	behaved similarly to 4a	0.03	3.4	–	–	–	difference in IC50 for trypsin-like activity between NCI-H929 and RPMI-8226 [1]: five-fold
CC(C)C[C@@H](/C=C/S(C)(=O)=O)NC(=O)[C@H](CC(C)C)NC(=O)[C@H](Cc1ccc(N)cc1)NC(=O)[C@H](Cc1ccccc1)N=[N+]=[N-] [Compound 56, N3-Phe-Phe(4-NH2-TFA)-Leu-Leu-VS]	–	24	< 0.004	> 30	<0.00017	less potently and selectively in extracts than in purified proteasomes	–
CC(C)C[C@@H](/C=C/S(C)(=O)=O)NC(=O)[C@H](CC(C)C)NC(=O)[C@H](Cc1ccncc1)NC(=O)[C@H](Cc1ccccc1)N=[N+]=[N-] [Compound 57, N3-Phe-Ala(4-pyridine)-Leu-Leu-VS]	–	24	–	> 30	0.00021	less potently and selectively in extracts than in purified proteasomes	–
CC(=O)N[C@@H](CCCNC(=N)N)C(=O)N[C@@H](CC(C)C)C(=O)N[C@@H](CCCNC(=N)N)C(=O)[C@@]1(C)CO1 [NC-012, Ac-Arg-Leu-Arg-ek]	–	–	–	–	–	–	inhibition of trypsin-like activity in live cells [6]: much higher concentrations; proteasome inhibitory potential on purified 26S proteasomes ([2]; 26S proteasomes from rabbit muscles): potent and specific inhibitors of the trypsin-like sites; also recorded: most potent and specific in the series; inhibition of constitutive (β2) versus immunoproteasome (β2i) trypsin-like sites (β2 and β2i sites): equipotent inhibitors of the trypsin-like sites of constitutive and immunoproteasomes
